Calls of active or inactive are those of the source. The rule behind the calls is not given here.
How the values were obtained:
Histone deacetylase = assay: Inhibition of HDAC in human HeLa nuclear extract using Boc-Lys(acetyl)-AMC as fluorogenic substrate measured after 1 hr by flourescence plate reader method; type: subcellular, Nucleus
[1] = molecular target: T1, Protein deacetylase HDAC6 (Homo sapiens) (UniProt Q9UBN7); assay: Inhibition of HDAC6 in human A549 cells assessed as increase in alpha tubulin acetylation measured after 24 hrs by Immunofluorescent assay; type: cell-based
T1 sequence (whole entry): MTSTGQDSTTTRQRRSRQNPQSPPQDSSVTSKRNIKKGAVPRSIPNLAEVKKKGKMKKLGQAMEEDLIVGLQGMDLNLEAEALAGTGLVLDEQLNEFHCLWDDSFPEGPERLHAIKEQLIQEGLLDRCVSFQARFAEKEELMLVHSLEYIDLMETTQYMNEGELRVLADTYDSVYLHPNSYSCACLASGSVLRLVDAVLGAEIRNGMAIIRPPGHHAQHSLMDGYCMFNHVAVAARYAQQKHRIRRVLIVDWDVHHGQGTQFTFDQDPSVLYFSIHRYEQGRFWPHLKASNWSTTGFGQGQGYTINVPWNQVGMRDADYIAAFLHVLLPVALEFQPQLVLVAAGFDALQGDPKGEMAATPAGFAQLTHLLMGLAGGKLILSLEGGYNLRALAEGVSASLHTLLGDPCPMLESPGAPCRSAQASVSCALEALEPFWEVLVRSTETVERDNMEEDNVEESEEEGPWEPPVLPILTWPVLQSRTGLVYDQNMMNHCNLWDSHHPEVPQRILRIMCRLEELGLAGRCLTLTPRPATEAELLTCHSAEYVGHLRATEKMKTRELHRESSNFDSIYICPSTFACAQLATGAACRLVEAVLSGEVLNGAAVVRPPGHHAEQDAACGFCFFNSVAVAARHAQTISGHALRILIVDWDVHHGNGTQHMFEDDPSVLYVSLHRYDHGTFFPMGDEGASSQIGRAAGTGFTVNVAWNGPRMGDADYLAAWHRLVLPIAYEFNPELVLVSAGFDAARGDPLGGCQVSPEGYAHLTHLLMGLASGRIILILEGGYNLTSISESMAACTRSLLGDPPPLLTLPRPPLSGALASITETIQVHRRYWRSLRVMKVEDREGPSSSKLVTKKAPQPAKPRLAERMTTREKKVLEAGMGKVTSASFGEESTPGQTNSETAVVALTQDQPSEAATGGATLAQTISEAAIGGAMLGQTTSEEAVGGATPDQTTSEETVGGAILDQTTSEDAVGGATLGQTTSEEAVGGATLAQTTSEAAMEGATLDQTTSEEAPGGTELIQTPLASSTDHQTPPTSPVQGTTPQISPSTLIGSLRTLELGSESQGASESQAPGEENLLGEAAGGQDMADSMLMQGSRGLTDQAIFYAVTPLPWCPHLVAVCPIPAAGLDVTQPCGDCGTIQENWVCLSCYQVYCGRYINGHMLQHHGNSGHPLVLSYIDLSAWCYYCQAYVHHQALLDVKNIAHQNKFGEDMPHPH

HepG2 = assay: cells; type: functional; conditions: Homo sapiens, time 48 hrs
Description: Antiproliferative activity against human HepG2 cells assessed as inhibition of cell proliferation incubated for 48 hrs by CCK8 assay

Histone deacetylase 2 = Histone deacetylase 2 (Homo sapiens, UniProt Q92769); assay: Inhibition of full length human HDAC2 using Boc-Lys(acetyl)-AMC as fluorogenic substrate measured after 1 hr by flourescence plate reader method
Histone deacetylase 4 = Histone deacetylase 4 (Homo sapiens, UniProt P56524); assay: Inhibition of human HDAC4 using Boc-Lys(acetyl)-AMC as fluorogenic substrate measured after 1 hr by flourescence plate reader method
Histone deacetylase 7 = molecular target: T2, Histone deacetylase 7 (Homo sapiens, UniProt Q8WUI4); assay: Inhibition of human N-terminal GST tagged HDAC7 (518 to end residues) expressed in baculovirus infected Sf9 insect cells using Boc-Lys(acetyl)-AMC as fluorogenic substrate measured after 1 hr by flourescence plate reader method
T2 sequence (Q8WUI4 whole entry): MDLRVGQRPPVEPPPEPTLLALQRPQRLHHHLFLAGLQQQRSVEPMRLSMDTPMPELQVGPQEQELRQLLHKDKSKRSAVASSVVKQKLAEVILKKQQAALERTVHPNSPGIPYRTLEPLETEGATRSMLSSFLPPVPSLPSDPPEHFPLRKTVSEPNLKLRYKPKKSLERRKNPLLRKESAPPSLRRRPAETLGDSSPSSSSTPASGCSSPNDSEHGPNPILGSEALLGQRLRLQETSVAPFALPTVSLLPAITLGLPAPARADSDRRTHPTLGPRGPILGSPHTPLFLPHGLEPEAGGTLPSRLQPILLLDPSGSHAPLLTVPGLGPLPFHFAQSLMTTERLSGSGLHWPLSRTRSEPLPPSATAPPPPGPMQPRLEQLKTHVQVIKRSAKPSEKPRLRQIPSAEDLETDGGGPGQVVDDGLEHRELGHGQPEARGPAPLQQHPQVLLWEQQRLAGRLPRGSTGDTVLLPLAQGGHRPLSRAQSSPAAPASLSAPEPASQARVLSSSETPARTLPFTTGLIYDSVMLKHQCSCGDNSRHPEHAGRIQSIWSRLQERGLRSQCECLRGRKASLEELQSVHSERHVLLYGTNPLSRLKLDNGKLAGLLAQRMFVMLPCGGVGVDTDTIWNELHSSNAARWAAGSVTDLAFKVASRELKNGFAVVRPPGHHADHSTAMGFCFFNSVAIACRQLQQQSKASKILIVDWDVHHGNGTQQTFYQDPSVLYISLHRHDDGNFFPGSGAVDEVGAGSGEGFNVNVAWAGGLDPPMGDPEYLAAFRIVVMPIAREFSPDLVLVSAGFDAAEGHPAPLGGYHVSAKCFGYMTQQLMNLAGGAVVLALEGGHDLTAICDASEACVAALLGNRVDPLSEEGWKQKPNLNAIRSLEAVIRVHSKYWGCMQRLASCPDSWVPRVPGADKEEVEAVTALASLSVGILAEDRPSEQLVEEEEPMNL

K562 = assay: Induction of apoptosis in human K562 cells assessed as upregulation of BaX protein expression at 10 uM measured after 8 hrs by Western blot analysis; type: functional, cell-based
A549 [2] = assay: Induction of cell cycle arrest in human A549 cells assessed as increase in accumulation at G1/G0 phase measured after 48 hrs by flow cytometry analysis; type: functional, cell-based; conditions: dose 1-10 µM
[3] = Half life in human liver microsomes; type: ADME, Microsome
[4] = Half life in mouse liver microsomes; type: ADME, Microsome
[5] = Acute toxicity in BALB/c mouse assessed as effect on normal behaviour at up to 2000 mg/kg, po; type: organism-based; conditions: in vivo
[6] = Acute toxicity in BALB/c mouse assessed as effect on body weight at up to 2000 mg/kg, po; type: organism-based; conditions: in vivo
A549 [7] = assay: Antitumor activity against human A549 cells xenografted in BALB/c mouse assessed as reduction in tumor volume when administered intratumorally for 21 days; type: functional; conditions: dose 0.75-1.5 mg, route it(Intratumoral), time 21.0 day
A549 [8] = assay: Antitumor activity against human A549 cells xenografted in BALB/c mouse assessed as tumor growth inhibition at high dose when administered intratumorally for 21 days relative to control; type: functional; conditions: route it(Intratumoral); time 21 day

Sequence of Histone deacetylase 4 (P56524 whole entry): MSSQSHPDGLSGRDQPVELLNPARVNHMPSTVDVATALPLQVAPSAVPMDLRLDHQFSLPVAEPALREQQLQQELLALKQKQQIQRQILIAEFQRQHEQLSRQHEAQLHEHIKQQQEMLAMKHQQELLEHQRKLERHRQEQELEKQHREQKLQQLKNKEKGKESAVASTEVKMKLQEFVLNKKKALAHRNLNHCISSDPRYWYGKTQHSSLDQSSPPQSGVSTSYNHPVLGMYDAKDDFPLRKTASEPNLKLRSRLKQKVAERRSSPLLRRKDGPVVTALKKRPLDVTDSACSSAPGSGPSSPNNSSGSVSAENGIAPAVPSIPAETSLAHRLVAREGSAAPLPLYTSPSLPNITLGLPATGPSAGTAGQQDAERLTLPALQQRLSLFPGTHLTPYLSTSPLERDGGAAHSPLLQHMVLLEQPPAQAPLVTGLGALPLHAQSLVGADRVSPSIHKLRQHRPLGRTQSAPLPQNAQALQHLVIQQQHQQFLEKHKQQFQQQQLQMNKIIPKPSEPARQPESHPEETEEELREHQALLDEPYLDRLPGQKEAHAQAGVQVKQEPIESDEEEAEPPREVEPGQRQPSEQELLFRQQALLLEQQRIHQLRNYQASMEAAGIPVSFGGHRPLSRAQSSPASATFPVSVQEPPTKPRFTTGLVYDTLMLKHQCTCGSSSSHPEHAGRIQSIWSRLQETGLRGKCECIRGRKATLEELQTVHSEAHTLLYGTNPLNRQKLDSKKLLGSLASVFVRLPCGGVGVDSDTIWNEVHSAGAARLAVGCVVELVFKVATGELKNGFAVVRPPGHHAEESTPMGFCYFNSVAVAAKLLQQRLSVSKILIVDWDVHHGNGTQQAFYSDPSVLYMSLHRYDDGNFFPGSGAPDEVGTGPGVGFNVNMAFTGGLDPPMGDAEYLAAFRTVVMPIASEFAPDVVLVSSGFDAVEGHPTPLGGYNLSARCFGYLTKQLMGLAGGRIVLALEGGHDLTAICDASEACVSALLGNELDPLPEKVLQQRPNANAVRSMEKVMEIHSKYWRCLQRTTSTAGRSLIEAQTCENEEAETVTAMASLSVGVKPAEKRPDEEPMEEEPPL
Sequence of Histone deacetylase 2 (Q92769 whole entry): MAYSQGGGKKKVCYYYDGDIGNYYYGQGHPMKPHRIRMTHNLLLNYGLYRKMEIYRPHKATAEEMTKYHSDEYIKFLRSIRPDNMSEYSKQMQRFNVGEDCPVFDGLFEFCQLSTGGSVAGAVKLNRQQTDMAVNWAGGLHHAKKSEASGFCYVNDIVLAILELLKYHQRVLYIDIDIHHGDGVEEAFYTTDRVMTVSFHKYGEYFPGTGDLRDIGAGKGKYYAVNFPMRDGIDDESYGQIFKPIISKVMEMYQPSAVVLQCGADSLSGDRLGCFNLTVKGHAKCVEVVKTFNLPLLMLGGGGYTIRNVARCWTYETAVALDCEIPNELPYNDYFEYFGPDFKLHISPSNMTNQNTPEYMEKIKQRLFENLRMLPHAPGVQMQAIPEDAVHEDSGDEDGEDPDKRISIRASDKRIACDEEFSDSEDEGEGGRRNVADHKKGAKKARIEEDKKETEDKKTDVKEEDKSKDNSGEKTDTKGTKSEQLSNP

| Structure (SMILES) | IC50 (Histone deacetylase) | inhibition [1] | GI50 (HepG2) | IC50 (Histone deacetylase 2) | IC50 (Histone deacetylase 4) | IC50 (Histone deacetylase 7) | Activity (K562) | Activity (A549 [2]) | half-life [3] | half-life [4] | Activity [5] | Activity [6] | Activity (A549 [7]) | TGI (A549 [8]) |
| --- | --- | --- | --- | --- | --- | --- | --- | --- | --- | --- | --- | --- | --- | --- |
| O=C(CCCSC[C@H](NC(=O)c1ccccc1)C(=O)Nc1ccccc1)NO | 52.7 nM | Dose-dependent effect | 6200 nM | > 200 nM | > 200 nM | > 200 nM | Active | Dose-dependent effect | 34.8 min | 22.6 min | Non-Toxic | Non-Toxic | Dose-dependent effect | 72% |
| O=C(CCCSC[C@H](NC(=O)OCc1ccccc1)C(=O)Nc1cccc2ccccc12)NO | 72.4 nM |  | 4500 nM | > 200 nM | > 200 nM | > 200 nM |  |  | 3.96 min | < 1 min |  |  |  |  |
| O=C(CCCSC[C@H](NC(=O)OCc1ccccc1)C(=O)Nc1ccccc1)NO | 75.1 nM |  | 7300 nM | > 200 nM | > 200 nM | > 200 nM |  |  |  |  |  |  |  |  |
